Assay results as given in ChEMBL document CHEMBL1201862, “PubChem BioAssay data set” (2004).
Active and inactive are the calls of the source.

Columns and labels:
H9c2 = assay: cells; assay type: functional, cell-based; details: Rattus norvegicus, H9c2, Myocardium;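 also: confirmatory concentration-response retest of ultra-high-throughput screening hits for modulation of myocardial damage; cell death induced by hydrogen peroxide oxidative stress; compound pretreatment for 60 min then peroxide exposure for 2 h; potency is for protecting the cells against peroxide damage rather than for killing them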
[1] = molecular target: T1, Corticotropin-releasing factor receptor 2/Corticotropin-releasing factor-binding protein (Homo sapiens, UniProt P24387+Q13324); assay: activators of CRF receptor 2 with binding protein – uHTS hits, confirmation (AID 602473); assay type: functional; details: read-out: EC50_Mean
T1 sequence (Q13324 whole entry): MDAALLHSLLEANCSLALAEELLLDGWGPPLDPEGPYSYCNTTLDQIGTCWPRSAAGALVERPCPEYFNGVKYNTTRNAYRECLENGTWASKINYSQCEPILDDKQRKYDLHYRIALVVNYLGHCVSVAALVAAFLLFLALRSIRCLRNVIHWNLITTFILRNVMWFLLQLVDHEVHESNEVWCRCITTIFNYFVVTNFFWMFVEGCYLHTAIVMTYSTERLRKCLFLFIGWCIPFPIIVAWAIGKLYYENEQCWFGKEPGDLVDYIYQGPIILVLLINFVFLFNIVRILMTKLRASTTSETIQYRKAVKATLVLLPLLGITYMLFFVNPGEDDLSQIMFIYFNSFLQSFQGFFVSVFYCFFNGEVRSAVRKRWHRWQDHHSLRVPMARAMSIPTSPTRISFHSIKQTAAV
T1 sequence (P24387 whole entry): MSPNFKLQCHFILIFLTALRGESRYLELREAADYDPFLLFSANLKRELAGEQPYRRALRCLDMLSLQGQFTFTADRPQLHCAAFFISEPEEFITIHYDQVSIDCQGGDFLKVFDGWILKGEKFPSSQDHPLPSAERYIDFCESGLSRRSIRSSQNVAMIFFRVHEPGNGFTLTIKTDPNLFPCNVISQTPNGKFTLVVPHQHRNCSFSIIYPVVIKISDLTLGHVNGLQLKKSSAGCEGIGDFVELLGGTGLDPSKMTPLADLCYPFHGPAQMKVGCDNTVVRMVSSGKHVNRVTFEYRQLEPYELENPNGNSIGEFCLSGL

[2] = molecular target: T1, Corticotropin-releasing factor receptor 2/Corticotropin-releasing factor-binding protein; assay: Dose Response confirmation of uHTS hits for small molecule antagonists of the CRF-binding protein and CRF-R2 receptor complex.; assay type: functional; details: read-out: IC50_Mean
[3] = molecular target: Glucose-6-phosphate 1-dehydrogenase (Homo sapiens, UniProt P11413); assay: human G6PD enzyme inhibitors, dose response, selectivity assay for P. falciparum G6PD inhibitor project, biochemical, fluorescence (AID 504792); assay type: functional
Sequence of Glucose-6-phosphate 1-dehydrogenase (P11413 whole entry): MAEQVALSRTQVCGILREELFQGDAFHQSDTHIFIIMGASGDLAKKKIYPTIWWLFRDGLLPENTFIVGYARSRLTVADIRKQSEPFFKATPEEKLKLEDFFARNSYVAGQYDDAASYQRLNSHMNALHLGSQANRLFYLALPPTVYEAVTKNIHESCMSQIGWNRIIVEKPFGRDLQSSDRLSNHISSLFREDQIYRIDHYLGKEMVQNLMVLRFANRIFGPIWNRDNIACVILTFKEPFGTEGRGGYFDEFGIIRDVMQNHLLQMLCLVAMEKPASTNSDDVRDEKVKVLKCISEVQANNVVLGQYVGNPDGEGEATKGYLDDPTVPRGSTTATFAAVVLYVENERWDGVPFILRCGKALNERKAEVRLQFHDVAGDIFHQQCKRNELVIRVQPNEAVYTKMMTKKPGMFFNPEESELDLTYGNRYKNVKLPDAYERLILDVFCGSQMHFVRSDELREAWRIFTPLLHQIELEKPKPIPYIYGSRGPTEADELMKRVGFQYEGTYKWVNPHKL

[4] = molecular target: FAD-linked sulfhydryl oxidase ALR (Homo sapiens, UniProt P55789); assay: inhibitors of human ALR sulfhydryl oxidase, dose response, biochemical, H2O2 detection, luminescence, cherry-pick (AID 493248)
Sequence of FAD-linked sulfhydryl oxidase ALR (P55789 whole entry): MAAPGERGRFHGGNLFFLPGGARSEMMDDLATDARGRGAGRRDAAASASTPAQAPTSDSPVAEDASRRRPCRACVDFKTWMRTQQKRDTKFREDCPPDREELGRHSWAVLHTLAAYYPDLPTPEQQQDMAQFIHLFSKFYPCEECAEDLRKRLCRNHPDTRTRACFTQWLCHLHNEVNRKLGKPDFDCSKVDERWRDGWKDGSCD

Cytochrome P450 3A4 = Cytochrome P450 3A4 (Homo sapiens, UniProt P08684);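 also: CYP3A4 tested as one member of a cytochrome P450 panel screen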
Sequence of Cytochrome P450 3A4 (P08684 whole entry): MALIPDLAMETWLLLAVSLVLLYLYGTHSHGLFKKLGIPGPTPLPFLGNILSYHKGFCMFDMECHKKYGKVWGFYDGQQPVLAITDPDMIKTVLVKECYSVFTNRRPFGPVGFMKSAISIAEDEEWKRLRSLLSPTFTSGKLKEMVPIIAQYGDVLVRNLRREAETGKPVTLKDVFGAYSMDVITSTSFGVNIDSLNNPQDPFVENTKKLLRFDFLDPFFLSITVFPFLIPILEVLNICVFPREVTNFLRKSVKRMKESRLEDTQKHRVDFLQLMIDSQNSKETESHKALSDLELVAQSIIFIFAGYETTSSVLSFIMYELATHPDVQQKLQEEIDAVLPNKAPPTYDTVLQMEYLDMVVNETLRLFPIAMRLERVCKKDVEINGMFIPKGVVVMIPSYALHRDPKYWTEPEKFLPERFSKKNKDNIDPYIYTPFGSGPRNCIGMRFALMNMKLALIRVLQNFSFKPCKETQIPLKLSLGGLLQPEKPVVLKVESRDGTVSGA

[5] = inhibitors of intracellular T. cruzi replication, confirmation, NIH3T3 host cells, beta-gal luminescence (AID 2044); assay type: functional, cell-based;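 also: intracellular parasites grown in NIH/3T3 mouse fibroblasts as host cells; luminescent beta-galactosidase reporter signal from transgenic T. cruzi replicating inside host cells; inhibitors lower the luminescence signal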
[6] = molecular target: DNA dC->dU-editing enzyme APOBEC-3G (Homo sapiens, UniProt Q9HC16); assay: Dose Response confirmation of small molecule APOBEC3G DNA Deaminase Inhibitors via a fluorescence-based single-stranded DNA deaminase assay. [Related pubchem assays (depositor defined):AID493012, AID493028]; assay type: functional
Sequence of DNA dC->dU-editing enzyme APOBEC-3G (Q9HC16 whole entry): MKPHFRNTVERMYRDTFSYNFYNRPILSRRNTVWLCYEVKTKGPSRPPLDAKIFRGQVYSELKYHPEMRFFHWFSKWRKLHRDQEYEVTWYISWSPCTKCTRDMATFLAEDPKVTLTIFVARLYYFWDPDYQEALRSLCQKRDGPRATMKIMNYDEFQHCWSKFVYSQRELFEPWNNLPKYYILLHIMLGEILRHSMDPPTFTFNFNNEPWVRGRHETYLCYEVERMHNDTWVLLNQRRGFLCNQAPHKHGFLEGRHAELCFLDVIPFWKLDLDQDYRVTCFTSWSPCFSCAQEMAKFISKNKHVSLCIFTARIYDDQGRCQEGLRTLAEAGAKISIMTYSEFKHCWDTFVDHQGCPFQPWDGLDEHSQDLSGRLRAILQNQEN

[7] = cytotoxicity toward NIH3T3 fibroblasts, dose response, counter-screen, cell-based, ATP luminescence, mouse fibroblasts (AID 2010); assay type: functional;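 also: cells exposed to compound for about 90 hours before reading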
Fatty acid synthase = Fatty acid synthase (Homo sapiens, UniProt P49327); assay: FAS thioesterase domain inhibitors, dose response, biochemical, kinetic fluorescence intensity (AID 624326); assay type: functional;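 also: rate of fluorescence rise from hydrolysis of a fluorogenic O-methyl fluorescein ester substrate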
Sequence of Fatty acid synthase (P49327 whole entry, the tested form may be a part): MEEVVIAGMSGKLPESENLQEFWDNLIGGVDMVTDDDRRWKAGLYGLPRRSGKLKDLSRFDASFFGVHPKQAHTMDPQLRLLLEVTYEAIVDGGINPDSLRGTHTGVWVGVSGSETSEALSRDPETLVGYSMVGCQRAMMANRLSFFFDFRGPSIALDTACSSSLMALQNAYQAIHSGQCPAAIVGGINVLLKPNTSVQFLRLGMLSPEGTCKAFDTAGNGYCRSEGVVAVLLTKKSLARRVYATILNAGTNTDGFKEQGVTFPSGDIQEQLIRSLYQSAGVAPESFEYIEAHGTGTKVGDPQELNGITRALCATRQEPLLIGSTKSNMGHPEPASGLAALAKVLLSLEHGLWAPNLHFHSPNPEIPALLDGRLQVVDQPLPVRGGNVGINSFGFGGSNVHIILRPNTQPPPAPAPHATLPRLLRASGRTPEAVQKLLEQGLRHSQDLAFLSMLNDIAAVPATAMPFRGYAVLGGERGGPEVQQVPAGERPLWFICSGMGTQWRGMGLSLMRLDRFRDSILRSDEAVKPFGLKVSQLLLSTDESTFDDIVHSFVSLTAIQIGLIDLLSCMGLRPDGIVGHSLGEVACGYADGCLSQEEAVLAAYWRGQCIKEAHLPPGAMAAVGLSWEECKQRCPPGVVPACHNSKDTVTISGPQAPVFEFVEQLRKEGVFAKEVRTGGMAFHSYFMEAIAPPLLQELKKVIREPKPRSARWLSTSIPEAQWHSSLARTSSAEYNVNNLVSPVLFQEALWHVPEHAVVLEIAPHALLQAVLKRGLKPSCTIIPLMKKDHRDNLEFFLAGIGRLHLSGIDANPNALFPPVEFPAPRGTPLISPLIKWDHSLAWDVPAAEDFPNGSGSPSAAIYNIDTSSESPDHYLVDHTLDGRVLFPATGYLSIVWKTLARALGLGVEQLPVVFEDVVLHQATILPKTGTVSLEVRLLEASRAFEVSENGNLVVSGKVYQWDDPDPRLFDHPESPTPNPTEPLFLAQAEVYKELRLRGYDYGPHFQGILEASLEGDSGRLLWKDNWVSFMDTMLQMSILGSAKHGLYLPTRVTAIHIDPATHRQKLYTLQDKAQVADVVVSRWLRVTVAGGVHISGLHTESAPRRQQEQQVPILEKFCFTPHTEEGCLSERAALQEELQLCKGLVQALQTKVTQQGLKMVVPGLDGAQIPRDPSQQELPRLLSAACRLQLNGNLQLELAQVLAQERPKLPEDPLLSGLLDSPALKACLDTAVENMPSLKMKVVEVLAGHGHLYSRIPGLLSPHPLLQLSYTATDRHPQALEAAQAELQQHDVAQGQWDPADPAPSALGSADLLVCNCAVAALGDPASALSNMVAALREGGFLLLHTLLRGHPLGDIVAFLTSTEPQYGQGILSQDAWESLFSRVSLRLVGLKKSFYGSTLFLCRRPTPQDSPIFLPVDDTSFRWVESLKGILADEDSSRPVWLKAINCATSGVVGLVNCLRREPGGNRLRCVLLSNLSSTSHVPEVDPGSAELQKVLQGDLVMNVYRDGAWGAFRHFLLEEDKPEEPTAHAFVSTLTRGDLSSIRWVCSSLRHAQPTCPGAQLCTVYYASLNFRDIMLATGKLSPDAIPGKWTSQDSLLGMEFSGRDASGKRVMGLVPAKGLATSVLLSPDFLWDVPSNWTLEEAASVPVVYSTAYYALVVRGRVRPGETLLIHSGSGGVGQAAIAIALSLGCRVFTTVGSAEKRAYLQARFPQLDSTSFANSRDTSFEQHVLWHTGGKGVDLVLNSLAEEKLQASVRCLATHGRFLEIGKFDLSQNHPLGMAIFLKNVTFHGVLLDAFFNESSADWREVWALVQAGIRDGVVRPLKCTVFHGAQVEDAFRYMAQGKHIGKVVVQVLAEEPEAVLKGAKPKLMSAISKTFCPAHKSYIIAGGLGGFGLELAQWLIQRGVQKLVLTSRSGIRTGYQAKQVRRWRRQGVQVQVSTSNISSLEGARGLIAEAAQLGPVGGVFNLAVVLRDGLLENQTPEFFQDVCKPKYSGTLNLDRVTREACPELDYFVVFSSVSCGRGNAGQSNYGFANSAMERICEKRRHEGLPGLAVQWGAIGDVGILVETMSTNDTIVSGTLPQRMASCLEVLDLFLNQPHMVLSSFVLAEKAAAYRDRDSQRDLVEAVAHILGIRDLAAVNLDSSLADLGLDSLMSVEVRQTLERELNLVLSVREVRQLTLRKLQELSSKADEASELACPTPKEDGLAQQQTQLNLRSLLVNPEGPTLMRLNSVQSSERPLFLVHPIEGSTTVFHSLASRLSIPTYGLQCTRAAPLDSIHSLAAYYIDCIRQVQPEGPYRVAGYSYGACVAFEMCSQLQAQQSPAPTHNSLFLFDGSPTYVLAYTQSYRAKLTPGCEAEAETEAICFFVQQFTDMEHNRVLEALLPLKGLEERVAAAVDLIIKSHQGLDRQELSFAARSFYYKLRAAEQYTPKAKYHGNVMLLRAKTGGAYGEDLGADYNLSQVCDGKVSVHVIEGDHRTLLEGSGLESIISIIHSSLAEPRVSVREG

fMet-Leu-Phe receptor = molecular target: T2, fMet-Leu-Phe receptor (Homo sapiens, UniProt P21462); assay: FPR ligands, dose response (AID 519); assay type: functional
T2 sequence (P21462 whole entry): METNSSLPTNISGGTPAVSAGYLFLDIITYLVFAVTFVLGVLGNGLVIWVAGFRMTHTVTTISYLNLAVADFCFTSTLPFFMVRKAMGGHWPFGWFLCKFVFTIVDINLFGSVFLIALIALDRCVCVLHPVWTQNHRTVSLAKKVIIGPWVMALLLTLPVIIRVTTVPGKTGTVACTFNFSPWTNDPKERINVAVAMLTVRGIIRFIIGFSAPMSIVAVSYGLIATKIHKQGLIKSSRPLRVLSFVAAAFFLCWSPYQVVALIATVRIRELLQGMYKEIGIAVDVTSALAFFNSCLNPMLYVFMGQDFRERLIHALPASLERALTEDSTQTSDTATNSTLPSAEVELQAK

[8] = molecular target: T3, Heat shock factor protein 1 (Mus musculus, UniProt P38532); assay: inhibition of MG132-induced HSE-luciferase signal, confirmation, cell-based, NIH3T3, luminescence, dose retest (AID 2382); assay type: functional;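 also: NIH3T3 fibroblasts with HSF1-driven luciferase reporter stressed by proteasome inhibitor MG132; luminescence from HSF1-driven luciferase expression after 8 hours of MG132 stress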
T3 sequence (P38532 whole entry): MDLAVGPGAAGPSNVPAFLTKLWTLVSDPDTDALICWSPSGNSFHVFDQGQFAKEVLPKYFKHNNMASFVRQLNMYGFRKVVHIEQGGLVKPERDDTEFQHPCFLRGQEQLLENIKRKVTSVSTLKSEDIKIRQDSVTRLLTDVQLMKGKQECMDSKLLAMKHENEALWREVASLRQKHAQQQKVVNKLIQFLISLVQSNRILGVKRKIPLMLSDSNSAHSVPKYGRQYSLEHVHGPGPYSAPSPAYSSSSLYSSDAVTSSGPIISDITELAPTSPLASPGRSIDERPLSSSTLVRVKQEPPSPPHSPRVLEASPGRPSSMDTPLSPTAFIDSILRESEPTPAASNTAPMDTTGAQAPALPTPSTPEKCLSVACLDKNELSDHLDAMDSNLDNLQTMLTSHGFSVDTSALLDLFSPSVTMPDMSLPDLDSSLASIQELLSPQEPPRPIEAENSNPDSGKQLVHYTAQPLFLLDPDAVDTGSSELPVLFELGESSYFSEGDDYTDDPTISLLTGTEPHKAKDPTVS

[9] = Luminescence Cell-Based Dose Retest to Confirm Inhibitors of Cancer Stem Cells. [Related pubchem assays (depositor defined):AID2717, AID2721]; assay type: functional; details: Homo sapiens
[10] = HEp-2 cell cytotoxicity, dose response, cytotoxicity control for RSV inhibitor project, HTS (AID 2410); assay type: functional; details: human respiratory syncytial virus
[11] = intracellular Trypanosoma cruzi inhibitors in host cells – cell-based, plate reader, cherry-pick samples, set 3, dose response (AID 651818); assay type: functional;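 also: compounds incubated with infected cells for about four days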
[12] = molecular target: Induced myeloid leukemia cell differentiation protein Mcl-1 (Homo sapiens, UniProt Q07820); assay type: functional
Sequence of Induced myeloid leukemia cell differentiation protein Mcl-1 (Q07820 whole entry): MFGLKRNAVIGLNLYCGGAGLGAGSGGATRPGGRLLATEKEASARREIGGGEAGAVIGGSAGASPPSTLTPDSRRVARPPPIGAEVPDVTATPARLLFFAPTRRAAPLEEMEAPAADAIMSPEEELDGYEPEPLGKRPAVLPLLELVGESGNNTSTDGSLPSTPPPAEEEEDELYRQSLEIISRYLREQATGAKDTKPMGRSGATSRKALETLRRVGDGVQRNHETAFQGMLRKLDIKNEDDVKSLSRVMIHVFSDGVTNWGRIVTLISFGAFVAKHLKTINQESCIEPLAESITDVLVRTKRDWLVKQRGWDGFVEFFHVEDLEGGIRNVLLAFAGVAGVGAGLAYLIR

BJ [13] = assay: cytotoxicity toward BJ-TERT-LT-ST fibroblasts, dose response, cell-based, RAS-independent, luminescence (AID 1935); assay type: functional; details: Homo sapiens;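 also: BJ fibroblasts immortalized with TERT plus LT and ST oncogenes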
[14] = cytotoxicity toward DRD oncogenic fibroblasts, dose response, cell-based, non-viral oncogenic, luminescence (AID 1934); assay type: functional; details: Homo sapiens
BJ [15] = assay: cytotoxicity toward BJ-TERT fibroblasts, dose response, cell-based, RAS-independent, luminescence (AID 1933); assay type: functional; details: Homo sapiens
BJ [16] = assay: cells; assay type: functional, cell-based; details: Homo sapiens

COc1cc(NC(=O)c2cc([N+](=O)[O-])ccc2NC(=O)CN2CCN(c3ccccn3)CC2)cc(OC)c1
IC50 (H9c2): 10.8 µM (active)

COc1ccc(NC(=S)N2CCC(N(C)CCN3CCOCC3)CC2)cc1Cl
EC50 [1]: > 53 µM (inactive)
IC50 [2]: > 47.1 µM (inactive)

Cc1ccc(S(=O)(=O)NNc2ccccc2)cc1
IC50 [3]: > 80 µM (inactive)
AC50 [4]: 0.623 µM (active)
AC50 (Cytochrome P450 3A4): 28.2 µM (inconclusive)

CCOC(=O)c1c(NC(=O)COC(=O)c2ccc(O)cc2)sc(C(=O)N(C)C)c1C
IC50 (H9c2): > 79 µM (inactive)

CCCNC(=O)Cn1sc2nc(C)cc(C)c2c1=O
IC50 [3]: 45.5 µM (inactive)
EC50 [5]: 3.08 µM (active)
IC50 [6]: 5.41 µM (active)
EC50 [7]: 9.56 µM (active)

COc1ccc(/C=C(\NC(=O)c2ccc([N+](=O)[O-])cc2)C(=O)NCCN2CCOCC2)cc1
IC50 (Fatty acid synthase): 5.27 µM (active)

COc1ccc(NC(=O)C2C3CCC(C3)C2C(=O)O)cc1OC (stereo not given)
Ki (fMet-Leu-Phe receptor): > 66.7 µM (inactive)

Cc1noc(NS(=O)(=O)c2ccc(N/C=C\C(=O)c3cccc4ccccc34)cc2)c1C
EC50 [1]: > 53 µM (inactive)
IC50 [2]: > 47.1 µM (inactive)

COc1cc(OC)c2ccc(=O)oc2c1C(CCN1CCOCC1)c1ccc2c(c1)OCO2 (stereo not given)
EC50 [1]: > 53 µM (inactive)
IC50 [2]: > 47.1 µM (inactive)

CCOC(=O)c1oc2cc(O)ccc2c(=O)c1-c1ccccc1OC
Ki (fMet-Leu-Phe receptor): > 66.7 µM (inactive)

CNc1nnc(S)s1
IC50 [6]: 17.6 µM (active)

CCCS(=O)(=O)N1CCCC(C(=O)N2CCC(Cc3ccccc3)CC2)C1 (stereo not given)
EC50 [8]: > 195 µM (not active)
Ki (fMet-Leu-Phe receptor): > 66.7 µM (inactive)

Cn1c(=O)c2c(nc(NCCCO)n2C/C=C/c2ccccc2)n(C)c1=O
IC50 (H9c2): > 79 µM (inactive)

COc1cc(/C=C(\C#N)c2nc3cc(C)ccc3[nH]2)c([N+](=O)[O-])cc1OC
IC50 (H9c2): > 79 µM (inactive)

C=CCn1c(-c2cc(OC)cc(OC)c2)n[nH]c1=S
IC50 [6]: 8.23 µM (active)

COc1ccc2cc3cc(C(=O)N4CC(C)CC(C)C4)oc3nc2c1 (stereo not given)
IC50 (Fatty acid synthase): 3.88 µM (active)

CSc1nc2ncc3c(n2n1)CC1c2ccccc2CCN1C3=O (stereo not given)
IC50 (H9c2): 15.1 µM (active)

CCC(CC)c1nnc(NC(=O)COc2ccc3c(c2)OCO3)s1
IC50 [6]: 53.2 µM (active)

O=C(c1ccccc1)c1nn(-c2ccc(Cl)cc2)cc1C(=O)c1cc2ccccc2oc1=O
EC50 [1]: > 53 µM (inactive)
IC50 [2]: > 47.1 µM (inactive)

Cc1cccc2sc(NC(=O)C3c4ccccc4Oc4ccccc43)nc12
AC50 [9]: 2.83 µM (active)
CC50 [10]: 15.1 µM (active)

CCOC(=O)Cc1cc(O)n2nc(C)c(-c3ccc(OC)cc3)c2n1
Ki (fMet-Leu-Phe receptor): 18.3 µM (inactive)

O=C(COC(=O)CCc1nc(O)c2ccccc2n1)NCc1ccc(F)cc1
IC50 (H9c2): > 79 µM (inactive)

CN1CCN(CCCNC(=O)Nc2cccc3ccccc23)CC1
Ki (fMet-Leu-Phe receptor): > 66.7 µM (inactive)

O=S(=O)(NCc1csc(-c2ccccc2)n1)c1ccc(Cl)s1
IC50 [3]: > 80 µM (inactive)

CCCCCCn1c(SCC(=O)OC)nc2c1c(=O)[nH]c(=O)n2C
IC50 [6]: 51.6 µM (active)

Nc1nc(O)nc(O)c1N=Cc1ccccc1
IC50 [3]: 63.8 µM (inactive)

CCN1CCCC1CNC(=O)c1ccc2c(c1)NC(=O)/C(=C\c1ccccc1Cl)S2 (stereo not given)
IC50 [3]: > 80 µM (inactive)

O=C(CCSCCC(=O)NN=Cc1ccccc1)NN=Cc1ccccc1
IC50 [3]: 55.2 µM (inactive)

O=C(c1ccc(Cl)cc1)N(Cc1cccs1)C1CCS(=O)(=O)C1 (stereo not given)
Ki (fMet-Leu-Phe receptor): > 66.7 µM (inactive)

C[C@H](CO)N1C[C@H](C)[C@H](CN(C)Cc2ccc(C(=O)Nc3ccccc3N)cc2)Oc2ccc(NC(=O)C3CCCCC3)cc2CC1=O
AC50 [11]: 3.41 µM (active)

C[C@@H]1CN([C@@H](C)CO)C(=O)c2cccc(NC(=O)NC3CCCCC3)c2O[C@H]1CN(C)Cc1ccc(C(F)(F)F)cc1
AC50 [11]: 2.86 µM (active)

C[C@H]1CN([C@@H](C)CO)C(=O)c2cc(NC(=O)Nc3ccc4c(c3)OCO4)ccc2O[C@@H]1CN(C)Cc1ccc(Oc2ccccc2)cc1
AC50 [11]: 4.01 µM (active)

CC(C)NC(=O)Nc1ccc2c(c1)CC(=O)N([C@H](C)CO)C[C@H](C)[C@H](CN(C)Cc1ccc(C(=O)Nc3ccccc3N)cc1)O2
AC50 [11]: 4 µM (active)

COc1ccc(S(=O)(=O)Nc2ccc3c(c2)CC(=O)N([C@H](C)CO)C[C@@H](C)[C@H](CN(C)Cc2ccc4c(c2)OCO4)O3)cc1
AC50 [11]: 5.51 µM (active)

C[C@H](CO)N1C[C@H](C)[C@H](CN(C)Cc2ccc3c(c2)OCO3)Oc2ccc(NC(=O)NC3CCCCC3)cc2C1=O
AC50 [11]: 1.82 µM (active)

C[C@H]1CN([C@@H](C)CO)C(=O)c2cccc(NC(=O)Nc3ccccc3)c2O[C@@H]1CN(C)Cc1ccc(C(=O)Nc2ccccc2N)cc1
AC50 [11]: 1.54 µM (active)

C[C@H](CO)N1C[C@H](C)[C@H](CN(C)Cc2ccc(C(=O)Nc3ccccc3N)cc2)Oc2c(NC(=O)Nc3ccc4c(c3)OCO4)cccc2C1=O
AC50 [11]: 5.97 µM (active)

COc1ccc(-c2cc(C(F)(F)F)nc(N3CCN(c4ccccc4)CC3)n2)cc1OC
Ki (fMet-Leu-Phe receptor): > 66.7 µM (inactive)

CCN1C(=O)C(C)S/C1=N\S(=O)(=O)c1ccc(F)cc1 (stereo not given)
IC50 [12]: 4.37 µM (not active)

Cc1ccc(NC(=S)N/N=C/c2c(Cl)cccc2Cl)c(C)c1
EC50 (BJ [13]): 3.99 µM (inconclusive)
EC50 [14]: 2.58 µM (active)
EC50 (BJ [15]): 2.66 µM (active)
AC50 [9]: 0.368 µM (active)
EC50 (BJ [16]): 3.48 µM (inconclusive)
